US6180599A, “Pharmaceutical composition, containing medium-chain fatty acids as active ingredients, for dental caries and periodontal disease” (priority 1997, dated 2001)

What was measured:
[1] = system: S. mutans 10449; test: Inhibitory effect on extracellular polysaccharide synthesis, standard strain; format: cell-based, Streptococcus mutans; conditions: 1 mM
Procedure: (§1) In order to identify the effect by which medium-chain fatty acids inhibit plaque matrix formation, inhibitory effect and concentration of extracellular polysaccharide synthesis were determined in seven kinds of standard cariogenic plaque bacteria. Also, the inhibitory effect of extracellular polysaccharide synthesis for 20 kinds of cariogenic plaque bacteria, separated from the human oral cavity, was measured. Liquid culture media used were: Todd-Hewitt broth of Streptococcus, Lactobacilli MRS broth of Lactobacillus and Brain Heart Infusion broth of Actinomyces. 0.1 ml of bacterial (or cell) suspension (OD600 =0.5) of each bacteria was inoculated to 5.9 ml of culture media containing 1 mM of medium-chain fatty acids and 2% of glucose, and was cultured for 24^~ 48 hours in 10% CO2 incubator. After culturing, the resultant was centrifuged to precipitate at 5,000×g for 15 minutes, then soluble extracellular polysaccharide was separated and purified from the supernatant and insoluble extracellular polysaccharide from the cell pellet, and then these were quantified.

[2] = system: S. mutans BHT; test: as above; format: cell-based, Streptococcus mutans; conditions: 1 mM
Procedure: as §1

[3] = system: S. mutans JC-2; test: as above; format: cell-based, Streptococcus mutans; conditions: 1 mM
Procedure: as §1

[4] = system: L. casei ATCC 27216; test: as above; format: cell-based, Lactobacillus casei; conditions: 1 mM, 2% glucose, 24-48 hours
Procedure: as §1

[5] = system: L. casei ATCC 4646; test: as above; format: cell-based, Lactobacillus casei
Procedure: as §1

[6] = system: A. viscosus ATCC 15987; test: as above; format: cell-based; conditions: 1 mM, 2% glucose, 24-48 hours
Procedure: as §1

[7] = system: S. sanguis 10556; test: as above; format: cell-based; conditions: 1 mM
Procedure: as §1

[8] = system: Streptococcus; test: Inhibitory effect on extracellular polysaccharide synthesis, summary over Streptococcus standard strains; format: cell-based; conditions: 1 mM, compared with control group, range over strains, read-out: synthesis of soluble extracellular polysaccharide inhibited by
Procedure: as §1

[9] = system: Lactobacillus; test: Inhibitory effect on extracellular polysaccharide synthesis, summary over Lactobacillus standard strains; format: cell-based; conditions: 1 mM, compared with control group, according to strains, read-out: synthesis of soluble extracellular polysaccharide inhibited/reduced by
Procedure: as §1

[10] = Extracellular polysaccharide in liquid medium with fatty acid, no bacteria
Procedure: as §1

[11] = system: cariogenic plaque bacteria; test: Inhibitory effect on extracellular polysaccharide synthesis (summary); format: cell-based, Streptococcus, Lactobacillus and Actinomyces; conditions: 1 mM; ranking
Procedure: as §1, with “quantified. So the experimental results that represent inhibitory effect of medium-chain fatty acids upon extracellular polysaccharide synthesis, are shown in table 1, 2, 3 and 4.” for “quantified.”

[12] = system: cariogenic plaque bacteria (standard strains); test: Inhibitory effect of acid production, standard strains; format: cell-based, Streptococcus, Lactobacillus and Actinomyces; conditions: ranking; FIG. 1
Procedure: In order to identify the action by which medium-chain fatty acids inhibit acid production, the inhibitory effect and concentration of acid production were determined in seven kinds of standard cariogenic plaque bacteria. Also, the inhibitory effect of acid production for 20 kinds of cariogenic plaque bacteria, separated from the human oral cavity, was assayed. Liquid culture media used were: Todd-Hewitt broth of Streptococcus, Lactobacilli MRS broth of Lactobacillus and Brain Heart Infusion broth of Actinomyces. […] The final pH of the culture medium was measured after culturing for 24^~ 48 hours in 10% CO2 incubator.

[13] = system: cariogenic plaque bacteria (standard strains); test: Inhibitory effect of bacterial growth, standard strains; format: cell-based, Streptococcus, Lactobacillus and Actinomyces; conditions: ranking; FIG. 3
Procedure: In order to evaluate how medium-chain fatty acids influence bacterial growth of cariogenic plaque bacteria, the influence on each bacteria was evaluated after selecting seven kinds of bacterial strains as standard bacteria among cariogenic plaque bacteria. […] The results that medium-chain fatty acids have on influencing bacterial growth of cariogenic plaque bacteria is shown in FIG. 3. And the result of measuring inhibitory effect of bacterial growth of 20 kinds of cariogenic plaque bacteria separated from the human oral cavities is shown in FIG. 4.

CCCCCCCCC(=O)[O-].[Na+] [C9, sodium nonanoate]
Extracellular polysaccharide, insoluble ([1]; 2% glucose, 24-48 hours, control 0.8 ± 0.3): 0.6 ± 0.2 µg/mL | Extracellular polysaccharide, soluble ([1]; 2% glucose, 24-48 hours, control 74.6 ± 1.8): 50.8 ± 12.2 µg/mL | inhibition at 1000 µM ([1]; Streptococcus mutans, 10449, vs control, read-out: Inhibitory rate, soluble): 32% | Extracellular polysaccharide, insoluble ([2]; 2% glucose, 24-48 hours, control 0.5 ± 0.1): 0.3 ± 0.1 µg/mL | inhibition at 1000 µM ([2]; Streptococcus mutans, vs control, read-out: Inhibitory rate, soluble): 75% | Extracellular polysaccharide, insoluble ([3]; 2% glucose, 24-48 hours, control 1.1 ± 0.2): 0.9 ± 0.3 µg/mL | Extracellular polysaccharide, soluble ([3]; 2% glucose, 24-48 hours, control 34.4 ± 3.9): 6.2 ± 3.5 µg/mL | inhibition at 1000 µM ([3]; Streptococcus mutans, JC2, vs control, read-out: Inhibitory rate, soluble): 82% | Extracellular polysaccharide, insoluble ([4]; control 5.9 ± 0.4): 5.1 ± 0.5 µg/mL | Extracellular polysaccharide, soluble ([4]; control 67.3 ± 4.5): 70.1 ± 3.3 µg/mL | Extracellular polysaccharide, insoluble ([5]; 1 mM, 2% glucose, 24-48 hours, control 5.3 ± 0.5): 3.8 ± 0.5 µg/mL | Extracellular polysaccharide, soluble ([5]; 1 mM, 2% glucose, 24-48 hours, control 43.6 ± 7.0): 31.9 ± 4.0 µg/mL | inhibition at 1000 µM ([5]; Lacticaseibacillus casei, ATCC4646, read-out: Inhibitory rate, soluble): 27% | Extracellular polysaccharide, insoluble ([6]; control 2.1 ± 0.2): 1.4 ± 0.5 µg/mL | Extracellular polysaccharide, soluble ([6]; control 222.8 ± 3.3): 241.6 ± 3.9 µg/mL | Extracellular polysaccharide, insoluble ([7]; 2% glucose, 24-48 hours, control 0.6 ± 0.3): 0.5 ± 0.2 µg/mL | Extracellular polysaccharide, soluble ([7]; 2% glucose, 24-48 hours, control 25.9 ± 4.3): 17.4 ± 8.9 µg/mL | inhibition at 1000 µM ([7]; vs control, read-out: Inhibitory rate, soluble): 33% | inhibition at 1000 µM [8]: 32 to 82% | inhibition at 1000 µM [9]: 27% | Extracellular polysaccharide, soluble ([10]; Table 1, 1 mM): 2.0 ± 0.7 µg/mL | Extracellular polysaccharide, soluble ([10]; Table 2, 1 mM): 4.6 ± 0.2 µg/mL | Extracellular polysaccharide, soluble ([10]; Table 3, 1 mM): 8.2 ± 0.4 µg/mL | inhibitory effect of extracellular polysaccharide synthesis, sequence [11]: sodium laurate>sodium capriate>sodium nonanoate | inhibitory effect of acid production, sequence [12]: sodium laurate>sodium capriate>sodium nonanoate | inhibitory effect of bacterial growth, sequence [13]: sodium laurate>sodium capriate>sodium nonanoate

CCCCCCCCCC(=O)O [C10, sodium capriate]
inhibitory effect of extracellular polysaccharide synthesis, sequence [11]: sodium laurate>sodium capriate>sodium nonanoate | inhibitory effect of acid production, sequence [12]: sodium laurate>sodium capriate>sodium nonanoate | inhibitory effect of bacterial growth, sequence [13]: sodium laurate>sodium capriate>sodium nonanoate
